Measured values taken from article PMC8690038, “Mechanism of the feedback-inhibition resistance in aspartate kinase of Corynebacterium pekinense: from experiment to MD simulations” (RSC Advances, 2020).
Residue numbers refer to the chain shown, from its start. Names and notes keep the numbering of the source.

T1: WT (Corynebacterium glutamicum, UniProt P26512)
T1 construct: gene lysC; recombinant from pET-28a-AK, His Trap purified, about 48 kDa
T1 sequence (P26512 1-421): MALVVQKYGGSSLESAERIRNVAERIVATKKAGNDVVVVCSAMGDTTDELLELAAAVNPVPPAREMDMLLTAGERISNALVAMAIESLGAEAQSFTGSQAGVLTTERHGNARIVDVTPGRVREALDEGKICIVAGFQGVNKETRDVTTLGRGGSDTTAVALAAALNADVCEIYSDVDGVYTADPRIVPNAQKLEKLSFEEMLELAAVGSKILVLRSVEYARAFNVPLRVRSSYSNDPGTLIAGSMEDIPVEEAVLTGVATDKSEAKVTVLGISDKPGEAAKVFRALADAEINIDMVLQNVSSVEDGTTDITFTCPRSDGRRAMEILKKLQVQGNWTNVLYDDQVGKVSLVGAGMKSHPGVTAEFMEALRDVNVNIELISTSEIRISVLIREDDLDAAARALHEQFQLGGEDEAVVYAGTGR

B1: WT (Corynebacterium glutamicum ATCC 13032) (protein)
chain: T1 sequence (P26512 1-421)
notes: recombinant from pET-28a-AK, His Trap purified, about 48 kDa
B2: T379N/A380C (Corynebacterium glutamicum ATCC 13032; A362C/T361N) (protein)
chain: T1 sequence (P26512 1-421) with T361N, A362C
notes: recombinant from pET-28a-AK in E. coli BL21, His Trap purified, about 48 kDa
B3: A380C (Corynebacterium glutamicum ATCC 13032; A362C) (protein)
chain: T1 sequence (P26512 1-421) with A362C
notes: as for B2

Experiments:
CpAK mutant A380C [1] = molecular target: T2, CpAK mutant A380C (Corynebacterium glutamicum, UniProt P26512, A362C); assay: biochemical; design: species or system Corynebacterium pekinense; conditions: read-out: Relative activity (%)
T2 construct: His-tag (pET-28a) (N); made in house; host or cells: E. coli BL21
T2 sequence (P26512 whole entry A362C): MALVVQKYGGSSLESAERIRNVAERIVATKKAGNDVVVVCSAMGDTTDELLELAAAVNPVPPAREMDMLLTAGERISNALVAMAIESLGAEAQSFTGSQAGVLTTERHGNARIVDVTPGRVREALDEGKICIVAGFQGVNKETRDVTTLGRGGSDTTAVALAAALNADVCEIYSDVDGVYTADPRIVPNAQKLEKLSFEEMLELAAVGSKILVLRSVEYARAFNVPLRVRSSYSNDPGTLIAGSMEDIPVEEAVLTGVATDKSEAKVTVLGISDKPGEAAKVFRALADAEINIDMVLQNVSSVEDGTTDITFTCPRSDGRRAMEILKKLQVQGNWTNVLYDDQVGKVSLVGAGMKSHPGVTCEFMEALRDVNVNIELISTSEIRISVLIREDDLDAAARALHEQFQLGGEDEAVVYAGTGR
Protocol: (§1) The reaction was performed through adding 20 μL purified enzyme and 20 μL substrate inhibitors (Lys, Thr, Met, Lys + Thr, Lys + Met, Thr + Met, and Lys + Thr + Met) at 0.2, 1, 5, and 10 mM. The reaction was finished by adding volume FeCl3 after 30 min and the absorbance was measured at 540 nm. Water was instead of the substrate inhibitor as blank control. The enzyme activity of blank control was defined as 100%.

CpAK mutant T379N/A380C [2] = molecular target: T3, CpAK mutant T379N/A380C (Corynebacterium glutamicum, UniProt P26512, A362C/T361N); assay: biochemical; design: species or system Corynebacterium pekinense; conditions: read-out: Relative activity (%)
T3 construct: His-tag (pET-28a) (N); made in house; host or cells: E. coli BL21
T3 sequence (P26512 whole entry T361N/A362C): as the sequence (P26512 whole entry A362C) above, with T361N counted along it
Protocol: as §1

WT [3] = molecular target: T1, WT; assay: Microscale thermophoresis of NT-647-NHS-labelled AK (40 nM) with diluted Asp in the enzyme activity measurement system, 28 °C, Monolith NT.115, no Lys added.; format: binding; conditions: read-out: K d (mM) Asp
Protocol: (§2) The purified AK concentration was adjusted to 2–20 μM with labeled buffer. The solid fluorescent dye (NT-647-NHS) was appended with 100% DMSO (30 μL) and dissolved thoroughly after vortex vibration. Then the dyes were adjusted to 2–3 folds of the protein concentration with the marker buffer. Protein and the solid fluorescent dye were mingled in equal proportion for dark reaction 30 min, and then purified according to the purification kit operation. The unlabeled substrate Asp and inhibitor Lys were diluted in the enzymatic activity measurement system, and the final concentration ranged from […], respectively, which they were incubated with the labeled protein (40 nM) at room temperature for 10 min. Then the samples were loaded into the Standard Capillaries from Nano Temper Technologies. Thermophoresis was measured 30 min after incubation at 28 °C on Monolith NT.115.[22] The dissociation constant (Kd) values were fitted by means of the MO. Affinity analysis software.

CpAK mutant A380C [4] = molecular target: T2, CpAK mutant A380C; assay: Microscale thermophoresis (MST), A380C; format: binding, Corynebacterium pekinense
Protocol: as §2

WT (wild-type CpAK) = assay: Microscale thermophoresis (MST), WT; format: binding, Corynebacterium pekinense; conditions: 28 °C
Protocol: as §2

WT [5] = molecular target: T1, WT; assay: Microscale thermophoresis of NT-647-NHS-labelled AK (40 nM) with diluted Lys in the enzyme activity measurement system, 28 °C, Monolith NT.115.; format: binding; conditions: read-out: K d (mM) Lys
Protocol: as §2

CpAK mutant T379N/A380C [6] = molecular target: T3, CpAK mutant T379N/A380C; assay: Microscale thermophoresis (MST), T379N/A380C; format: binding, Corynebacterium pekinense
Protocol: as §2

[7] = substrate: N[C@@H](CC(=O)O)C(=O)O; assay: Colorimetric end-point assay (FeCl3, 540 nm) with 0.5-16 mM L-Asp, 10.4 mM ATP, 1.6 mM MgSO4, 800 mM KCl, 800 mM NH4OH, 100 mM Tris-HCl pH 8.0, 28 °C, 30 min; fitted with the Hill equation.; format: biochemical
Protocol: The reaction system (1 mL) contained at the final concentration: 1.6 mM MgSO4, 800 mM KCl, 0.5–16 mM L-Asp, 10.4 mM ATP (dissoluted by 25 mM Tris–HCl), 100 mM Tris–HCl buffer solution (pH 8.0), 10 mM β-mercaptoethanol, and 800 mM NH4OH. The water was instead of L-Asp as blank control. The reaction was generated by adding 50 μL purified enzyme at 28 °C for 30 min, and stopped by adding FeCl3 solution (three parallel, below the same) and the absorbance were determined at 540 nm. The nonlinear curve was fitted by the Hill equation (V = Vmax (S^n)/(K^n + S^n)) using Origin 8.5 software. In the equation, the n value represents the Hill coefficient; the K value is equal to the substrate concentration at half the maximum rate of enzymatic reaction; Vmax and V indicate the maximum velocity and reaction rate, respectively; S means the substrate concentration.

Molecule | activity at 200 µM (CpAK mutant A380C [1]) | activity at 1000 µM (CpAK mutant A380C [1]) | activity at 5000 µM (CpAK mutant A380C [1]) | activity at 10000 µM (CpAK mutant A380C [1]) | activity at 200 µM (CpAK mutant T379N/A380C [2]) | activity at 1000 µM (CpAK mutant T379N/A380C [2]) | activity at 5000 µM (CpAK mutant T379N/A380C [2]) | activity at 10000 µM (CpAK mutant T379N/A380C [2]) | Km [7] | other results
C[C@@H](O)[C@H](N)C(=O)O [Thr, threonine] | 78.3 ± 1.19% | 80.9 ± 3.06% | 82.1 ± 3.56% | 87.8 ± 3.53% | 94.6 ± 3.26% | 97.06 ± 0.68% | 97.8 ± 1.95% | 98.12 ± 0.44% |  | 
N[C@@H](CC(=O)O)C(=O)O [Asp, L-aspartic acid (L-Asp)] |  |  |  |  |  |  |  |  |  | Kd (WT [3]): 655.1 ± 0.9 mM
NCCCC[C@H](N)C(=O)O [Lys, lysine] | 94.8 ± 0.97% | 95.7 ± 1.43% | 99.7 ± 0.54% | 104 ± 1.32% | 96.99 ± 0.56% | 98.8 ± 4.95% | 106.9 ± 0.56% | 116 ± 1.81% |  | Kd (CpAK mutant A380C [4]): 5.32 ± 0.01 mM; Kd (WT (wild-type CpAK)): 1.32 mM; Kd (WT [5]): 1.32 mM; Kd (CpAK mutant T379N/A380C [6]): 9.24 mM
CSCC[C@H](N)C(=O)O [Met, methionine] | 95.1 ± 1.69% | 97.71 ± 0.85% | 98.3 ± 2.6% | 98.1 ± 1.89% | 90.47 ± 0.12% | 96.33 ± 0.56% | 98.12 ± 0.44% | 99.47 ± 0.53% |  | 
B1 |  |  |  |  |  |  |  |  | 4.17 mM | 
B2 |  |  |  |  |  |  |  |  | 2.89 mM | 
B3 |  |  |  |  |  |  |  |  | 3.57 mM | 
